Tests used:
[1] = cited from earlier work
[2] = adsorption effect of PBT in cell culture chambers (active substance adsorption); assay type: physicochemical; settings: after 24 hours; both embodiments Chip PBT-BC1 and Chip PBT-BC2; control stock solution propiconazole 100 μM, troglitazone 64 μM
Procedure: After an incubation period of 24 h, at least 80% of the starting concentration of the propiconazole or the troglitazone is detectable in the culture medium (cf. FIG. 3A, FIG. 3B).
FIGS. 3A and 3B show results of experiments on the adsorption effect of PBT in two cell culture chambers 1 according to the disclosure of different designs. The designation, “Chip PBT-BC1,” denotes a first embodiment of the cell culture chamber 1, and “Chip PBT-BC2” a second embodiment. The first embodiment has a width B of 34.6 mm, a depth T of 6.56 mm, and a height H of 0.7 mm for the first channel 3. The second channel 4 has the dimensions of 44.8 mm, 3.6 mm, and 0.8 mm (W/D/H). The corresponding dimensions for the second embodiment, “Chip PBT-BC2,” of the cell culture chamber 1 are 34.6 mm, 8.06 mm, and 0.7 mm (W/D/H) for the first channel 3 and 49.4 mm, 5.61 mm, and 1.0 mm (B/T/H) for the second channel 4.
In comparison, a control in the form of a stock solution (100 μM) with propiconazole is given. […] In each case, it can be seen from the two graphics that, in both embodiments of the cell culture chamber 1 according to the disclosure, more than 85% of the propiconazole (FIG. 3A) and more than 80% of the troglitazone (FIG. 3B) in the culture medium 7 could be detected even after 24 hours.

[3] = after 24 hours in PDMS chips; binds irreversibly to PDMS; cited from earlier work
[4] = system: macrophages in co-culture with liver sinusoidal endothelial cells and hepatocytes; experiment: LPS addition to liver model to check activatability of immune cells (cytokine release); assay type: cell-based; settings: LPS added at the tenth and fourteenth day of culture; FIG. 8
Procedure: In addition, lipopolysaccharide (LPS) was added to some samples at the tenth day and the fourteenth day to check the activatability of immune cells (macrophages) contained in the liver model, and the respective reactions were shown. The addition of LPS as a so-called pyrogenic substance represents a test for endotoxins that is customary in the art. Immune cells such as macrophages respond to this stimulus with increased release of cytokines. […] It can be deduced from this that macrophages in co-culture with the investigated liver sinusoidal endothelial cells and hepatocytes were capable of reacting with an immune response to an endotoxin even after 10 or after 14 days. This is important for being able to detect immune cell-mediated side effects of drugs.

Cc1c(C)c2c(c(C)c1O)CCC(C)(COc1ccc(CC3SC(=O)NC3=O)cc1)O2 (stereo not shown) [troglitazone]
log P [1]: 3.60

CCCC1COC(Cn2cncn2)(c2ccc(Cl)cc2Cl)O1 (stereo not shown) [propiconazole]
percentage (RTC - ratio to control) remaining and detectable in the culture medium [2]: more than 85% | detected fraction of the starting concentration in the culture medium [3]: less than 30%

lipopolysaccharide [LPS]
concentration of IL-1beta after the addition of LPS [4]: distinct increase

— patent US20240010993A1, “CELL CULTURE CHAMBER AND METHOD FOR CULTURING CELLS AND FOR THE IN VITRO PRODUCTION OF CELL LAYERS AND ORGAN MODELS” (Dynamic42 GmbH, priority 2021, published 2024)
